Test results: patent publication US10017503B2, “Compounds, compositions, and methods for increasing CFTR activity” (Proteostasis Therapeutics, Inc., priority 2014, dated 2018)

Each compound was assayed against T1, ΔF508-CFTR (Homo sapiens, UniProt P13569, DEL508-508) (assay: hBE equivalent current (Ieq) assay). Details: AUC of equivalent chloride current as % of VX-809 (1 uM); compound at 10 uM and VX-809 at 1 uM; primary hBE cells homozygous ΔF508, 24 h treatment.
T1 construct: Primary lung epithelial cells homozygous for the Cystic Fibrosis-causing ΔF508 mutation were differentiated for a minimum of 4 weeks; endogenous in cells; host or cells: primary lung (bronchial) epithelial cells (hBE) homozygous for ΔF508, differentiated at an air-liquid interface
T1 sequence (P13569 with tags, fused parts or gaps DEL508-508): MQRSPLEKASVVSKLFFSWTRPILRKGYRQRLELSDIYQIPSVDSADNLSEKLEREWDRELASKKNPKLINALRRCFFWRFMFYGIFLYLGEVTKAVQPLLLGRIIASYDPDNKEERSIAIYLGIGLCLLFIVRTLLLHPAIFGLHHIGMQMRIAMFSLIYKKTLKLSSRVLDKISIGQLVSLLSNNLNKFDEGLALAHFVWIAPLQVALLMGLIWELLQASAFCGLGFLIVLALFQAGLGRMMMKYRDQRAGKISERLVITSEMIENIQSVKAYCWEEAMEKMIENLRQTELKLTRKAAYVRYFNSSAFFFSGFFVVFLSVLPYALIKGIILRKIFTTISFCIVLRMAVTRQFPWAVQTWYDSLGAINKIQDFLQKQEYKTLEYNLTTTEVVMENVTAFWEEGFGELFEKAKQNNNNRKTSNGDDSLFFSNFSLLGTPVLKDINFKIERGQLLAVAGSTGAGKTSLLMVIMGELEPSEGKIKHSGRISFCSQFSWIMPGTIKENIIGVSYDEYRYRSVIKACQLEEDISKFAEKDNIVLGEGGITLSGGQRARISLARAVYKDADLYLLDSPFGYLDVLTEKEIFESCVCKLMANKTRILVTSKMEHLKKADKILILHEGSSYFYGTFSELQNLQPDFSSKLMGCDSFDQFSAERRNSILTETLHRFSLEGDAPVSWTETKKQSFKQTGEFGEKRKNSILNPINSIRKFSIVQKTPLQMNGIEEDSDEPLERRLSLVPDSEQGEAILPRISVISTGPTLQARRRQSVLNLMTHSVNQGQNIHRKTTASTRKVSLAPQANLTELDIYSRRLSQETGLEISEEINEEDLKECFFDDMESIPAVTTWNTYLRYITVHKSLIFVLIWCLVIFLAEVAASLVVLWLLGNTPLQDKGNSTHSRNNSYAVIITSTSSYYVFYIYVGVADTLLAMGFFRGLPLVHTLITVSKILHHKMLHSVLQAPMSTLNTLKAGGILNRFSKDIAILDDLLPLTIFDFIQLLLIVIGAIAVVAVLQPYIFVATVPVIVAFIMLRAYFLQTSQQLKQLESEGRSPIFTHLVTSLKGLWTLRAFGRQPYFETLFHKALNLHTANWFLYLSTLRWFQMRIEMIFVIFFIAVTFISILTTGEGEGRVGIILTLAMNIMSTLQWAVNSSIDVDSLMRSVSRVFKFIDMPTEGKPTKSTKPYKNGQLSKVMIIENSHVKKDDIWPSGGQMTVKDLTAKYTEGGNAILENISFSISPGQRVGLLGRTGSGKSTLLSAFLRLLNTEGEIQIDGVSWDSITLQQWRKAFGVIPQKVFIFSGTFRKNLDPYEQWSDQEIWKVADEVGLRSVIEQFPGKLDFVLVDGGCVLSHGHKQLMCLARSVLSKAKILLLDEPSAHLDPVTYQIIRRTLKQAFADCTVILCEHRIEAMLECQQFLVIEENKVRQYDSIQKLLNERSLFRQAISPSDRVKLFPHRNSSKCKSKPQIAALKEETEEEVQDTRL
Type: cell-based
Procedure: ii. hBE Equivalent Current (Ieq) Assay Primary lung epithelial cells homozygous for the Cystic Fibrosis-causing ΔF508 mutation were differentiated for a minimum of 4 weeks in an air-liquid interface on Costar 24 well HTS filter plates prior to the equivalent current (Ieq) measurements. Cells were apically mucus-washed for 30 minutes 24 h prior to treatment with compounds. The basolateral media was removed and replaced with media containing the compound of interest diluted to its final concentration from DMSO stocks. Treated cells were incubated at 37° C. and 5% CO2 for 24 hours. At the end of the treatment period, the media was changed to the Ieq experimental solution for 30 minutes before the experiment and plates are maintained in a CO2-free incubator during this period. The plates containing the cells were then placed in pre-warmed heating blocks at 36° C.±0.5 for 15 minutes before measurements are taken. The transepithelial voltage (VT) and conductance (GT) were measured using a custom 24 channel current clamp (TECC-24) with 24 well electrode manifold. The Ieq assay measurements were made following additions with standardized time periods: 1. The baseline VT and GT values were measured for approximately 20 minutes. 2. Benzamil was added to block ENaC for 15 minutes. 3. Forskolin plus VX-770 were added to maximally activate ΔF508-CFTR for 27 minutes. 4. Bumetanide was added to inhibit the NaK2Cl cotransporter and shut-off secretion of chloride. The activity data captured was the area under the curve (AUC) for the traces of the equivalent chloride current. The AUC was collected from the time of the forskolin/VX-770 addition until the inhibition by bumetanide addition. Correction in response to compound treatment was scored as the increase in the AUC for compound-treated samples over that of vehicle-treated samples. (** indicates activity ≥200% of VX-809 (1 uM) with compound at 10 uM and VX-809 at 1 uM; * indicates activity 100-200% of VX-809 (1 uM) with compound at 10 uM and VX-809 at 1 uM. ^## indicates activity ≥200% of VX-809 (3 uM) with compound at 10 uM and VX-809 at 3 uM; ^# indicates activity 100-200% of VX-809 (3 uM) with compound at 10 uM and VX-809 at 3 uM.
For COCn1ccnc1S(=O)(=O)N(C)CCCNC(=O)c1cc(-c2ccccc2)on1 [Compound B11, N-(3-((1-(methoxymethyl)-N-methyl-1H-imidazole)-2-sulfonamido)propyl)-5-phenylisoxazole-3-carboxamide], the Ieq activity was “** (activity ≥200% of VX-809 (1 uM) with compound at 10 uM and VX-809 at 1 uM)”. With CN(CCCNC(=O)c1cc(-c2ccccc2)on1)S(=O)(=O)c1nccn1C [Compound B10, N-(3-((N-1-dimethyl-1H-imidazole)-2-sulfonamido)propyl)-5-phenylisoxazole-3-carboxamide] the Ieq activity was “* (activity 100-200% of VX-809 (1 uM) with compound at 10 uM and VX-809 at 1 uM)”. For Nc1cc(CO)nn1S(=O)(=O)CCNC(=O)c1cc(-c2ccccc2)on1 [Compound B7, N-(2-((5-amino-3-(hydroxymethyl)-1H-pyrazol-1-yl)sulfonyl)ethyl)-5-phenylisoxazole-3-carboxamide], the Ieq activity was “* (activity 100-200% of VX-809 (1 uM) with compound at 10 uM and VX-809 at 1 uM)”. With O=C(NCCCNS(=O)(=O)c1ncccn1)c1cc(-c2ccccc2)on1 [Compound B5, 5-phenyl-N-(3-(pyrimidine-2-sulfonamido)propyl)isoxazole-3-carboxamide] the Ieq activity was “** (activity ≥200% of VX-809 (1 uM) with compound at 10 uM and VX-809 at 1 uM)”. With O=C(NCCCNS(=O)(=O)c1ncc[nH]1)c1cc(-c2ccccc2)on1 [Compound B1] the Ieq activity was “** (activity ≥200% of VX-809 (1 uM) with compound at 10 uM and VX-809 at 1 uM)”. With O=C(NCCCNS(=O)(=O)c1cc(CO)n[nH]1)c1cc(-c2ccccc2)on1 [Compound B4, N-(3-((3-(hydroxymethyl)-1H-pyrazole)-5-sulfonamido)propyl)-5-phenylisoxazole-3-carboxamide] the Ieq activity was “** (activity ≥200% of VX-809 (1 uM) with compound at 10 uM and VX-809 at 1 uM)”. CN(CCCNC(=O)c1cc(-c2ccccc2)on1)S(=O)(=O)c1ncc[nH]1 [Compound B2, N-(3-(N-methyl-1H-imidazole-2-sulfonamido)propyl)-5-phenylisoxazole-3-carboxamide] was tested, and the Ieq activity was “** (activity ≥200% of VX-809 (1 uM) with compound at 10 uM and VX-809 at 1 uM)”. For O=C(NCCCNS(=O)(=O)c1ccccn1)c1cc(-c2ccccc2)on1 [Compound B6, 5-phenyl-N-(3-(pyridine-2-sulfonamido)propyl)isoxazole-3-carboxamide], the Ieq activity was “** (activity ≥200% of VX-809 (1 uM) with compound at 10 uM and VX-809 at 1 uM)”. For CC(O)c1nnc(NS(=O)(=O)CCNC(=O)c2cc(-c3ccccc3)on2)s1 (stereo in doubt) [Compound B9, (R)—N-(2-(N-(5-(1-hydroxyethyl)-1,3,4-thiadiazol-2-yl)sulfamoyl)ethyl)-5-phenylisoxazole-3-carboxamide], the Ieq activity was “* (activity 100-200% of VX-809 (1 uM) with compound at 10 uM and VX-809 at 1 uM)”. With O=C(NCCNS(=O)(=O)c1cc(CO)n[nH]1)c1cc(-c2ccccc2)on1 [Compound B3, N-(2-((3-(hydroxymethyl)-1H-pyrazole)-5-sulfonamido)ethyl)-5-phenylisoxazole-3-carboxamide] the Ieq activity was “* (activity 100-200% of VX-809 (1 uM) with compound at 10 uM and VX-809 at 1 uM)”. With CC(O)c1nnc(NS(=O)(=O)CCNC(=O)c2cc(-c3ccccc3)on2)s1 (stereo in doubt) [Compound B8, (S)—N-(2-(N-(5-(1-hydroxyethyl)-1,3,4-thiadiazol-2-yl)sulfamoyl)ethyl)-5-phenylisoxazole-3-carboxamide] the Ieq activity was “* (activity 100-200% of VX-809 (1 uM) with compound at 10 uM and VX-809 at 1 uM)”.
